Key:
human R1 = target: T1, human R1 (Homo sapiens, UniProt P23921); assay: Surface plasmon resonance binding analysis; conditions: SPR, steady-state affinity, three independent experiments
T1 construct: made in house; host or cells: Escherichia coli
T1 sequence (P23921 1-792): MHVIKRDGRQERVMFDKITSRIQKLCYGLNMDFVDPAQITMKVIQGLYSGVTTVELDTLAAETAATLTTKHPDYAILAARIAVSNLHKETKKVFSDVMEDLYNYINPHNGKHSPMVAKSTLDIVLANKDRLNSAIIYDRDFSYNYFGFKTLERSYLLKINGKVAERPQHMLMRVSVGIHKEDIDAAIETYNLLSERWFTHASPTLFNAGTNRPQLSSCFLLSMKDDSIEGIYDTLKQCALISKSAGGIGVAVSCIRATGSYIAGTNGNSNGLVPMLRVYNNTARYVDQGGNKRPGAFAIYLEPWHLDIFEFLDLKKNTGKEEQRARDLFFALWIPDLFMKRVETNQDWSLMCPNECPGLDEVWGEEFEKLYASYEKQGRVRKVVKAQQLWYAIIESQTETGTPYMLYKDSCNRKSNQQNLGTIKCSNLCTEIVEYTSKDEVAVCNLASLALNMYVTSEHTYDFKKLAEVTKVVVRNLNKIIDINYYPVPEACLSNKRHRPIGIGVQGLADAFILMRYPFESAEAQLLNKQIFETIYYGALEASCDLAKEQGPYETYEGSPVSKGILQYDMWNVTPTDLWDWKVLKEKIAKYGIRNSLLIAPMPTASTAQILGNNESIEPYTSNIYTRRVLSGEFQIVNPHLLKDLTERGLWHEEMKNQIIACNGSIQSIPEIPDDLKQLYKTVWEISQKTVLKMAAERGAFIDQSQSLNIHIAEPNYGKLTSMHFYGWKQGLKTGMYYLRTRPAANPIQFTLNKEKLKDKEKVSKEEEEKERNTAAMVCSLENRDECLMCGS
Procedure: The binding affinity of TAS1553 to the R1 subunit was investigated using surface plasmon resonance (SPR) binding analysis. […] Next, we evaluated the inhibitory effect of TAS1553 against the enzymatic activity of RNR, consisting of R1 and R2 recombinant proteins. RNR activity was determined by its ability to reduce cytidine diphosphate (CDP) to deoxycytidine diphosphate (dCDP), based on a previous report. […] In addition to the inhibitory effect on RNR, TAS1553 was evaluated in a Eurofins LeadProfilingScreen panel assay including 68 proteins, such as ion channels, transporters, nuclear receptors, and G protein-coupled receptors, to examine its potential adverse activity.

Plasma exposure in rats = conditions: nude rats
Procedure: First, we analyzed the exposure of TAS1553 when administered orally.
Next, we evaluated the antitumor activity of a high-dose administration of TAS1553 and cytarabine in rats bearing MV-4-11 xenografts. […] The rats were treated with cytarabine for 5 days at 16 and 32 mg/kg. […] In addition to the hematologic tumor, we evaluated the antitumor activity of TAS1553 in mice implanted with HCC38 cell line as a solid tumor model. […] Finally, TAS1553 was evaluated for its survival benefit in a mouse model. To achieve this, we established mice bone marrow cells harboring the human MLL-AF9 fusion gene, which is known as a driver gene for AML in humans as well as mice[48]. Mice were transplanted with the cells through the tail vein and the treatment with TAS1553 was started 11 days post-implantation.
F344/NJcl-rnu/rnu rats were orally administered with TAS1553 (two animals per group). The plasma samples were collected at each point. TAS1553 concentrations in plasma were measured with the LC-MS/MS.

MV-4-11 xenograft tumors = assay: Intratumoral dATP and ATP pool in MV-4-11 xenograft tumors after single oral dose; assay type: in vivo, rat; conditions: 1 and 2 h post-administration, 50 mg/kg and 200 mg/kg single oral dose
Procedure: To determine whether TAS1553 achieved RNR inhibition in an in vivo model, we examined the effect of a single dose of orally administered TAS1553 on intratumoral dATP pool, DNA replication stress, and apoptosis in rats that were subcutaneously implanted with a xenograft of MV-4-11 cell line. […] The decline in the intratumoral dATP pool recovered 4 h after the administration of both doses. We also evaluated the DNA replication stress and apoptosis induction in tumors following TAS1553 administration. Consistent with the modulation of the dATP pool, the single administration of TAS1553 (50 mg/kg or more) caused the phosphorylation of Chk1 at Ser345 1 and 2 h post-administration. Furthermore, TAS1553 administration also led to induction in cleaved PARP and cleaved caspase-3 levels, following to Chk1 phosphorylation (Fig. 4d).
Cells were plated, cultured for 1 day, treated with the compound, and harvested. The collected cells were homogenized with 0.42 mol/L perchloric acid, including IS-dATP at 0.6 μmol/L and IS-ATP at 2.4 μmol/L as internal standards for dATP and ATP, respectively. At each time point, xenograft tumors were excised after single dosing of the test compound. The tissues were homogenized with 0.42 mol/L perchloric acid, including IS-dATP at 3 μmol/L as an internal standard for dATP and ATP. […] The aqueous layer collected after vortex and centrifugation was analyzed by LC-MS/MS. […]

## Cc1ccc(F)c([C@@H](C)[C@H](NS(=O)(=O)c2ccc(Cl)cc2C(N)=O)c2n[nH]c(=O)o2)c1C [TAS1553, 5-chloro-2-{N-[(1S,2R)-2-(6-fluoro-2,3-dimethylphenyl)-1-(5-oxo-4,5-dihydro-1,3,4-oxadiazol-2-yl)propyl]sulfamoyl}benzamide]
Human R1
  Kd: 34.9 ± 0.9 nM
Plasma exposure in rats
  plasma concentration after single oral dose: dose-dependent rise
MV-4-11 xenograft tumors
  effect on intratumoral dATP pool: significant reduction

Reference: paper PMC9184620, “TAS1553, a small molecule subunit interaction inhibitor of ribonucleotide reductase, exhibits antitumor activity by causing DNA replication stress” (Communications Biology, 2022)
